Experiments:
[1] = system: IL-13 induced STAT6 phosphorylation in BEAS-2B human lung epithelial cells; assay: Cellular JAKI potency assay (BEAS-2B); type: cell-based; details: BEAS-2B cells; for IC50: Homo sapiens, BEAS-2B, read-out: BEAS2B pIC50 (converted)
Outline: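 AlphaLISA SureFire detection of Tyr641 pSTAT6 in lysates gave IC50s (4-parameter fit, expressed as pIC50). Cells: human BEAS-2B, exposed 1 h at 37 °C to compound dose series at 0.1% DMSO, then 30 min to IL-13 added at 80 ng/mL in HEPES-buffered HBSS with BSA.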

JAK1 = JAK1 (Homo sapiens (Human), UniProt P23458); assay: Biochemical JAK kinase assay (LanthaScreen), JAK1; details: for Ki: read-out: JAK1 pKi (converted)
Sequence of JAK1 (P23458 whole entry): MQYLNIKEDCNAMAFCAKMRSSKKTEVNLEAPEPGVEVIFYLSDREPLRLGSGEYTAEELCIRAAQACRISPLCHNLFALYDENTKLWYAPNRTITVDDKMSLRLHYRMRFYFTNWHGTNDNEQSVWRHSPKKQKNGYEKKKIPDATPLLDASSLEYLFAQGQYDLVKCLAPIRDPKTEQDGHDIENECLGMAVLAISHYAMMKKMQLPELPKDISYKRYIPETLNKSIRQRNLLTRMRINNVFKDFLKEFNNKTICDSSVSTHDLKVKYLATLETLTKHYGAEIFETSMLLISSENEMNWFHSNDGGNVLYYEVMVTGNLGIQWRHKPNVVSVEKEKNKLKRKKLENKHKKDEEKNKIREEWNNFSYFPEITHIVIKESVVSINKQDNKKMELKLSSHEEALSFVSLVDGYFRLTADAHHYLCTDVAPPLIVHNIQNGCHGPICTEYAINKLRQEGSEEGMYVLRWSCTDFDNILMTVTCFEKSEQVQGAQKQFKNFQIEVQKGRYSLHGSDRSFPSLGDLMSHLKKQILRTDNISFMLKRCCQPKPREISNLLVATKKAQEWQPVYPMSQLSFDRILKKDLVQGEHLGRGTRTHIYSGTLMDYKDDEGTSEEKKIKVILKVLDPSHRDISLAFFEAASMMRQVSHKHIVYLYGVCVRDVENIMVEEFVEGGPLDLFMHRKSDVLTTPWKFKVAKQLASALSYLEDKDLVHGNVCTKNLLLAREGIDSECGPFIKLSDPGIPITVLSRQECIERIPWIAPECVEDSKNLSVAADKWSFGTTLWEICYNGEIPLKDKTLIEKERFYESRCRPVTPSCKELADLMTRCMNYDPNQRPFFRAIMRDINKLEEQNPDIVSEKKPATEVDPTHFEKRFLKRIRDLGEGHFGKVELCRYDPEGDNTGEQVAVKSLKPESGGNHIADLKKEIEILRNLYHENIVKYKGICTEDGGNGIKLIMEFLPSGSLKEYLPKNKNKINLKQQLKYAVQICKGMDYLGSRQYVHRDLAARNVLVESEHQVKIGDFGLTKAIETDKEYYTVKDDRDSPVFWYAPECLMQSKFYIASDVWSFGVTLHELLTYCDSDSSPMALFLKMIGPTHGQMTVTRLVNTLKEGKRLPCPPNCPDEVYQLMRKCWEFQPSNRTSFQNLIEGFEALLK
Outline: (§1)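 LanthaScreen format: phospho-STAT1 (pTyr701) detected with 2 nM Tb antibody after 10 mM EDTA quench. Kinase step used Km-level ATP and 200 nM STAT1 peptide, 1 h at ambient after 1 h pre-incubation. Inhibition fitted to IC50, reported as pKi.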

TYK2 = TYK2 (Homo sapiens (Human), UniProt P29597); assay: Biochemical JAK kinase assay (LanthaScreen), Tyk2; details: read-out: Tyk2 pKi (converted)
Sequence of TYK2 (P29597 whole entry): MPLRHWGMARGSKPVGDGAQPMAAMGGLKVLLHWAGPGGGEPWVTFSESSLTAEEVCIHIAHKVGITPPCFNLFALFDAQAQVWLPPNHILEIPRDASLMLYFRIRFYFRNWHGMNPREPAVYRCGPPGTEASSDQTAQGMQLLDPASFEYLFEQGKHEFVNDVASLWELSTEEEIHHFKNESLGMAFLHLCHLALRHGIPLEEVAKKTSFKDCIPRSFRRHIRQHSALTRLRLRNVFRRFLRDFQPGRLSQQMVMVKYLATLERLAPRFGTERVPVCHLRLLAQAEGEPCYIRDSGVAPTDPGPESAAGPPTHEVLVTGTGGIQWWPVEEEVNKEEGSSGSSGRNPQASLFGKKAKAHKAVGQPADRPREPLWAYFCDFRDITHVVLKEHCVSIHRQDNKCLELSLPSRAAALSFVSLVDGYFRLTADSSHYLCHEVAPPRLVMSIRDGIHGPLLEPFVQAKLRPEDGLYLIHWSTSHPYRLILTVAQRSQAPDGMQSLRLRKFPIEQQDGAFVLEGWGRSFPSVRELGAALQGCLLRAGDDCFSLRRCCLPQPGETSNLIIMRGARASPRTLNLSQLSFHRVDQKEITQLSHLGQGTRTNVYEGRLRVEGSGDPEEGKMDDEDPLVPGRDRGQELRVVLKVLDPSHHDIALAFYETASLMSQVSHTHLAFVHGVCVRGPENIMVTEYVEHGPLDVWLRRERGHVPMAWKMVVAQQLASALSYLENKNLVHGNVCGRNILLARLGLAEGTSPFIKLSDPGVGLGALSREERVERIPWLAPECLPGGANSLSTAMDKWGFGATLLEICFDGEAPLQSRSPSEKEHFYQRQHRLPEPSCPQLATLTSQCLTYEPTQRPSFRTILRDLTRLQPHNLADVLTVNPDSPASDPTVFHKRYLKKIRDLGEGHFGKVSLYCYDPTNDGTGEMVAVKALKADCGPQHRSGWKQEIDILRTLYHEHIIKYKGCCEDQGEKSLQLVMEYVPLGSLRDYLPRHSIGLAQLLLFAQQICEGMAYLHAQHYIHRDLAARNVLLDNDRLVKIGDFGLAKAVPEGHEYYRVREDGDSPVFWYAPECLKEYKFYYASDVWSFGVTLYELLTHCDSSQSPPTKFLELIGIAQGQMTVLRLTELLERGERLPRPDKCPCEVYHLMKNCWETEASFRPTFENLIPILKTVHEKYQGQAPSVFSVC
Outline: as §1

JAK3 = JAK3 (Homo sapiens (Human), UniProt P52333); assay: Biochemical JAK kinase assay (LanthaScreen), JAK3; details: read-out: JAK3 pKi (converted)
Sequence of JAK3 (P52333 whole entry): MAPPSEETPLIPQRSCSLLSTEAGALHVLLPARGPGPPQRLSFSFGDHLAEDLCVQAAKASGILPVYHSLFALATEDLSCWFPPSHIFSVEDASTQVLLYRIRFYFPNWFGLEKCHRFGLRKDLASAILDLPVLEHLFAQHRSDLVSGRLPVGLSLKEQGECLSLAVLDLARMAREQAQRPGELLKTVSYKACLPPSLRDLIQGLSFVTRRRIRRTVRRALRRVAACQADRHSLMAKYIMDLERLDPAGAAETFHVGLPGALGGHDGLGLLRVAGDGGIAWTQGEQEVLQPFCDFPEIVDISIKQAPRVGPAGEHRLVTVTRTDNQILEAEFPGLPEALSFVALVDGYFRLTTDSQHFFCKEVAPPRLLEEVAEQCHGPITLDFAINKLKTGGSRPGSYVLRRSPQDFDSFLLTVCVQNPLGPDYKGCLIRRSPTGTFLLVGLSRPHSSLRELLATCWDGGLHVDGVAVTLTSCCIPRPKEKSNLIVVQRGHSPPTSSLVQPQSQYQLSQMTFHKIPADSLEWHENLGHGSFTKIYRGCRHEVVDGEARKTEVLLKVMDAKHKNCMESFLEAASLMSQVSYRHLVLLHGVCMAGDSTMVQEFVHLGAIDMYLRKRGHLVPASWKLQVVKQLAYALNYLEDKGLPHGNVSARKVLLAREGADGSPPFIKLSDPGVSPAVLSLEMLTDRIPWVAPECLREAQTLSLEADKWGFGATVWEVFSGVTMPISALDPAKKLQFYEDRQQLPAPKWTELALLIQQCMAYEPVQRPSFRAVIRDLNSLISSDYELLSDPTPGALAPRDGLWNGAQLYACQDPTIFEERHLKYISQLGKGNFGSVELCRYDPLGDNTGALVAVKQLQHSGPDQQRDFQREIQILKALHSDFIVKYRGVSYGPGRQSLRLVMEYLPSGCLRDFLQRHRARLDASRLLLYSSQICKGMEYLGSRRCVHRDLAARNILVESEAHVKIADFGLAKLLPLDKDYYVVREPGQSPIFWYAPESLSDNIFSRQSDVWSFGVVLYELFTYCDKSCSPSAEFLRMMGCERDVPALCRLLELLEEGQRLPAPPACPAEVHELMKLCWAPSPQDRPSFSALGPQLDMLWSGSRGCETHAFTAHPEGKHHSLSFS
Experimental: A panel of four LanthaScreen JAK biochemical assays (JAK1, 2, 3 and Tyk2) were carried in a common kinase reaction buffer (50 mM HEPES, pH 7.5, 0.01% Brij-35, 10 mM MgCl2, and 1 mM EGTA). Recombinant GST-tagged JAK enzymes and a GFP-tagged STAT1 peptide substrate were obtained from Life Technologies.
Serially diluted compounds were pre-incubated with each of the four JAK enzymes and the substrate in white 384-well microplates (Corning) at ambient temperature for 1 h. ATP was subsequently added to initiate the kinase reactions in 10 μL total volume, with 1% DMSO. The final enzyme concentrations for JAK1, 2, 3 and Tyk2 are 4.2 nM, 0.1 nM, 1 nM, and 0.25 nM respectively; the corresponding Km ATP concentrations used are 25 μM, 3 μM, 1.6 μM, and 10 μM; while the substrate concentration is 200 nM for all four assays. Kinase reactions were allowed to proceed for 1 hour at ambient temperature before a 10 μL preparation of EDTA (10 mM final concentration) and Tb-anti-pSTAT1 (pTyr701) antibody (Life Technologies, 2 nM final concentration) in TR-FRET dilution buffer (Life Technologies) was added. The plates were allowed to incubate at ambient temperature for 1 h before being read on the EnVision reader (Perkin Elmer). Emission ratio signals (520 nm/495 nm) were recorded and utilized to calculate the percent inhibition values based on DMSO and background controls.
For dose-response analysis, percent inhibition data were plotted vs. compound concentrations, and IC50 values were determined from a 4-parameter robust fit model with the Prism software (GraphPad Software). Results were expressed as pIC50 (negative logarithm of IC50) and subsequently converted to pKi (negative logarithm of dissociation constant, Ki) using the Cheng-Prusoff equation.
Test compounds having a lower Ki value or higher pKi value in the four JAK assays show greater inhibition of JAK activity.

JAK2 = JAK2 (Homo sapiens (Human), UniProt O60674); assay: Biochemical JAK kinase assay (LanthaScreen), JAK2; details: for Ki: read-out: JAK2 pKi (converted)
Sequence of JAK2 (O60674 whole entry): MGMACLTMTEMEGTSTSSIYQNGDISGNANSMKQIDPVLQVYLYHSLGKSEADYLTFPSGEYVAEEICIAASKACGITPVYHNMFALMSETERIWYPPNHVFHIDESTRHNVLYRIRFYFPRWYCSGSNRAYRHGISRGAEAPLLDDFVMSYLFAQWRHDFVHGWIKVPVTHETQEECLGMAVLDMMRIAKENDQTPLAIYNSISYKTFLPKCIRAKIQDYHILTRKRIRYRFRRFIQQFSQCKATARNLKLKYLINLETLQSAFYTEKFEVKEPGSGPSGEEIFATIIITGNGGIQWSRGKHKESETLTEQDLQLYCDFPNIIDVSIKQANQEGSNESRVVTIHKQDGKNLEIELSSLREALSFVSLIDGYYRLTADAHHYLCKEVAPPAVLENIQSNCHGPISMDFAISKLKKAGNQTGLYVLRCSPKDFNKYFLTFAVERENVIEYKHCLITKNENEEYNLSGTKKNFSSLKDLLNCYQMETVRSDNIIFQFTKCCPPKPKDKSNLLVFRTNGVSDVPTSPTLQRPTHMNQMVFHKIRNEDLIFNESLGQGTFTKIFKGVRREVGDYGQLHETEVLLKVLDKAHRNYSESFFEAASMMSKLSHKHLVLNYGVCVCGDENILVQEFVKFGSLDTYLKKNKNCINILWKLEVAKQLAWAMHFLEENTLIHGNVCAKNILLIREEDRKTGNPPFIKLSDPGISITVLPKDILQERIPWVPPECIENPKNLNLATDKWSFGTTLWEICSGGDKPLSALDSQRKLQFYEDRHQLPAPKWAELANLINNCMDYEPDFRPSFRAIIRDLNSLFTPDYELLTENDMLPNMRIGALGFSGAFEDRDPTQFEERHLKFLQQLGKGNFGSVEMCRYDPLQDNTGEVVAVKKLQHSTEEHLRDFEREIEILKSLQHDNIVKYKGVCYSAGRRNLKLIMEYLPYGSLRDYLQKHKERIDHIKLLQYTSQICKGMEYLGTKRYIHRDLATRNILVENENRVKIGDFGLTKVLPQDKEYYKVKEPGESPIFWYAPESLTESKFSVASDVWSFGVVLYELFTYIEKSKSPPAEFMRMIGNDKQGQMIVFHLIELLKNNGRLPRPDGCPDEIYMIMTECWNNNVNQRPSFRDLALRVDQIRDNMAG
Outline: as §1

Row | SMILES | IC50 [1] [nM] | Ki (JAK1) [nM] | Ki (TYK2) [nM] | Ki (JAK3) [nM] | Ki (JAK2) [nM] | JAK2 pKi (JAK2) | JAK1 pKi (JAK1) | BEAS2B pIC50 [1]
1 | CCc1cc(O)ccc1-c1ccc2c(-c3nc(C4=C(C)CNC4)c[nH]3)n[nH]c2c1F [Example 293] | 3.16 to 10 | 0.1 to 1 | 0.1 to 1 | 0.1 to 1 | 0.1 to 1 |  |  | 
2 | CCc1cc(O)ccc1-c1ccc2c(-c3nc(C4=CCN(C(=O)[C@@H](N)C(C)(C)O)C4)c[nH]3)n[nH]c2c1F [Example 174] | 10 to 31.6 | 0.1 to 1 | 1 to 10 | 0.1 to 1 | 0.1 to 1 |  |  | 
3 | CCc1cc(O)ccc1-c1ccc2c(-c3nc(C4=CCCN(C5CCN(C)CC5)C4)c[nH]3)n[nH]c2c1F [Example 194] | 10 to 31.6 | 0.1 to 1 | 1 to 10 | 0.1 to 1 | 0.1 to 1 |  |  | 
4 | CCc1cc(O)ccc1-c1ccc2c(-c3nc(C4=C[C@H](C)NCC4)c[nH]3)n[nH]c2c1F [Example 299] | 10 to 31.6 | 0.1 to 1 | 0.1 to 1 | 0.1 to 1 | 0.1 to 1 |  |  | 
5 | CCc1cc(O)ccc1-c1ccc2c(-c3nc(C4=CCN(C(=O)[C@@H](N)C(C)(C)O)CC4)c[nH]3)n[nH]c2c1F [Example 158] | 31.6 to 100 | 1 to 10 | 10 to 100 | 0.1 to 1 | 0.1 to 1 |  |  | 
6 | CCOC[C@H]1C=C(c2c[nH]c(-c3n[nH]c4c(F)c(-c5ccc(O)cc5CC)ccc34)n2)CN1 [Example 307] | 10 to 31.6 | 0.1 to 1 | 1 to 10 | 0.1 to 1 | 0.1 to 1 |  |  | 
7 | CCc1cc(O)ccc1-c1ccc2c(-c3nc(C4=CCN(CCN(C)C)C4)c[nH]3)n[nH]c2c1F [Example 220] | 10 to 31.6 | 0.1 to 1 | 1 to 10 | 0.1 to 1 |  | A (A represents a pKi value ≥10 (Ki≤0.1 nM)) |  | 
8 | CCc1cc(O)ccc1-c1ccc2c(-c3nc(C4=CCN(CCN5CCOCC5)CC4)c[nH]3)n[nH]c2c1 [Example 184] | 3.16 to 10 |  | 1 to 10 | 0.1 to 1 |  | A (A represents a pKi value ≥10 (Ki≤0.1 nM)) | A (A represents a pKi value ≥10 (Ki≤0.1 nM)) | 
9 | CCc1cc(O)ccc1-c1ccc2c(-c3nc(C4=CCN(C5CCN(C)C5)CC4)c[nH]3)n[nH]c2c1F (centres unmarked) [Example 208] | 10 to 31.6 | 0.1 to 1 | 1 to 10 | 0.1 to 1 |  | A (A represents a pKi value ≥10 (Ki≤0.1 nM)) |  | 
10 | CCc1cc(O)ccc1-c1ccc2c(-c3nc(C4=CCN(C(=O)[C@@H](N)C(C)(C)O)CC4)c[nH]3)n[nH]c2c1 [Example 153] | 31.6 to 100 | 0.1 to 1 | 1 to 10 | 0.1 to 1 |  | A (A represents a pKi value ≥10 (Ki≤0.1 nM)) |  | 
11 | CCc1cc(O)ccc1-c1ccc2c(-c3nc(C4=CC(C)NC4)c[nH]3)n[nH]c2c1 (centres unmarked) [Example 238] | 3.16 to 10 | 0.1 to 1 | 10 to 100 | 0.1 to 1 | 0.1 to 1 |  |  | 
12 | CCc1cc(O)ccc1-c1ccc2c(-c3nc(C4=CC5CCCC(C4)N5)c[nH]3)n[nH]c2c1 (centres unmarked) [Example 225] | 31.6 to 100 | 0.1 to 1 | 1 to 10 | 0.1 to 1 | 0.1 to 1 |  |  | 
13 | CCOC(=O)C1CC=C(c2c[nH]c(-c3n[nH]c4c(F)c(-c5ccc(O)cc5CC)ccc34)n2)CN1 (centres unmarked) [Example 300] | 10 to 31.6 | 0.1 to 1 | 1 to 10 | 0.1 to 1 | 0.1 to 1 |  |  | 
14 | CCc1cc(O)ccc1-c1ccc2c(-c3nc(C4=CCN(CCO)CC4)c[nH]3)n[nH]c2c1F [Example 36] | 3.16 to 10 |  | 1 to 10 | 0.1 to 1 | 0.1 to 1 |  | A (A represents a pKi value ≥10 (Ki≤0.1 nM)) | 
15 | CCc1cc(O)ccc1-c1ccc2c(-c3nc(C4=CCN(CCCO)C4)c[nH]3)n[nH]c2c1F [Example 54] | 3.16 to 10 |  | 1 to 10 | 0.1 to 1 |  | A (A represents a pKi value ≥10 (Ki≤0.1 nM)) | A (A represents a pKi value ≥10 (Ki≤0.1 nM)) | 
16 | CCc1cc(O)ccc1-c1ccc2c(-c3nc(C4=CCN(CCCO)CC4)c[nH]3)n[nH]c2c1 [Example 34] | 3.16 to 10 |  | 1 to 10 | 0.1 to 1 |  | A (A represents a pKi value ≥10 (Ki≤0.1 nM)) | A (A represents a pKi value ≥10 (Ki≤0.1 nM)) | 
17 | CCc1cc(O)ccc1-c1ccc2c(-c3nc(C4=CCCN(C5CCCN(C)C5)C4)c[nH]3)n[nH]c2c1F (centres unmarked) [Example 217] | 31.6 to 100 | 1 to 10 | 1 to 10 | 0.1 to 1 | 0.1 to 1 |  |  | 
18 | CCc1cc(O)ccc1-c1ccc2c(-c3nc(C4=CCCN(C)C4)c[nH]3)n[nH]c2c1 [Example 27] | 3.16 to 10 |  | 1 to 10 | 0.1 to 1 |  | A (A represents a pKi value ≥10 (Ki≤0.1 nM)) | A (A represents a pKi value ≥10 (Ki≤0.1 nM)) | 
19 | CCc1cc(O)ccc1-c1ccc2c(-c3nc(C4=CCN(C(C)C)CC4)c[nH]3)n[nH]c2c1 [Example 20] | 3.16 to 10 |  | 1 to 10 | 0.1 to 1 |  | A (A represents a pKi value ≥10 (Ki≤0.1 nM)) | A (A represents a pKi value ≥10 (Ki≤0.1 nM)) | 
20 | CCc1cc(O)ccc1-c1ccc2c(-c3nc(C4=CCN(S(=O)(=O)C5CNC5)CC4)c[nH]3)n[nH]c2c1F [Example 178] | 100 to 316 | 1 to 10 | 10 to 100 | 1 to 10 | 0.1 to 1 |  |  | 
21 | CCc1cc(O)ccc1-c1ccc2c(-c3nc(C4=CC(C)NC4)c[nH]3)n[nH]c2c1F (centres unmarked) [Example 244] | 3.16 to 10 | 0.1 to 1 | 1 to 10 | 0.1 to 1 | 0.1 to 1 |  |  | 
22 | CCc1cc(O)ccc1-c1ccc2c(-c3nc(C4=CCN([C@H]5CC[C@@H](O)CC5)C4)c[nH]3)n[nH]c2c1F [Example 305] |  | 0.1 to 1 | 0.1 to 1 | 0.1 to 1 |  | A (A represents a pKi value ≥10 (Ki≤0.1 nM)) |  | B (B represents a pIC50 value between 7.5 (included) and 8)
23 | CCc1cc(O)ccc1-c1ccc2c(-c3nc(C4=CCN(C5COC5)CC4)c[nH]3)n[nH]c2c1F [Example 64] | 10 to 31.6 | 0.1 to 1 | 1 to 10 | 0.1 to 1 | 0.1 to 1 |  |  | 
24 | CCc1cc(O)ccc1-c1ccc2c(-c3nc(C4=CCN(C)C4)c[nH]3)n[nH]c2c1F [Example 31] | 3.16 to 10 | 0.1 to 1 | 1 to 10 | 0.1 to 1 | 0.1 to 1 |  |  | 
25 | CCc1cc(O)ccc1-c1ccc2c(-c3nc(C4=CC[C@H](C)NC4)c[nH]3)n[nH]c2c1 [Example 230] | 3.16 to 10 |  | 1 to 10 | 0.1 to 1 |  | A (A represents a pKi value ≥10 (Ki≤0.1 nM)) | A (A represents a pKi value ≥10 (Ki≤0.1 nM)) | 
